Experimental data taken from ChEMBL document CHEMBL5120812, “Cytotoxic Nitrobenzoyl Sesquiterpenoids from an Antarctica Sponge-Derived Aspergillus insulicola” (J Nat Prod, 2022).

Legend:
Format in all cases: functional, cell-based
ASPC1 = experiment: Cytotoxicity against human ASPC1 cells assessed as inhibition of cell growth incubated for 72 hrs by SRB assay; conditions: ASPC1, 72 h
MDA-MB-231 = experiment: Cytotoxicity against human MDA-MB-231 cells assessed as inhibition of cell growth incubated for 72 hrs by SRB assay; conditions: MDA-MB-231, 72 h
PANC-1 = experiment: Cytotoxicity against human PANC-1 cells assessed as inhibition of cell growth incubated for 72 hrs by SRB assay; conditions: PANC-1, 72 h
BXPC-3 = experiment: Cytotoxicity against human BXPC-3 cells assessed as inhibition of cell growth incubated for 72 hrs by SRB assay; conditions: BXPC-3, 72 h

## C=C(CCCCCCCC(=O)OC[C@@]1(C)CCC[C@]2(C)[C@H]3COC(=O)C3=C[C@@H](OC(=O)c3ccc([N+](=O)[O-])cc3)[C@@H]12)C(=O)O
ASPC1
  IC50: > 30 µM
MDA-MB-231
  IC50: > 30 µM
PANC-1
  IC50: > 30 µM

## C=C(CCCCCCCC(=O)OC[C@@]1(C)CCC[C@@]2(C)[C@H]1[C@H](OC(=O)c1ccc([N+](=O)[O-])cc1)C=C1C(=O)OC[C@@]12O)C(=O)O
ASPC1
  IC50: 2.7 µM
MDA-MB-231
  IC50: 11.7 µM
PANC-1
  IC50: 4.6 µM

## Nc1ccn([C@@H]2O[C@H](CO)[C@@H](O)C2(F)F)c(=O)n1 [GEMCITABINE]
ASPC1
  IC50: 7.5 µM
PANC-1
  IC50: 8.3 µM
BXPC-3
  IC50: 0.04 µM
